We go through three compounds from patent US4767621A (priority 1982, dated 1988).

The subject of data set [1] is human T lymphoblastoid cells of the CEM line bearing the antigen T-65.
For a further data set, the system named is mouse. Particulars: intra-peritoneally, Westley 1977; cited from earlier work.
For data set [2], the system named is Charles River France mouse. As to the kind of experiment: Acute toxicity of monensin, single intra-peritoneal administration (own experiments). It counts as in vivo. Particulars: single administration intra-peritoneally. How it is done: (§1) Thus the acute toxicity of monensin in a single administration intra-peritoneally in the Charles River France mouse is characterised by a 50% lethal dose of 340 micrograms per mouse, namely 17 mg/kg of body weight.

Experiment in data set [3]: as above
It counts as in vivo, mouse. Particulars: mouse, in vivo, ip; single administration intra-peritoneally; read-out: 50% lethal dose, per body weight. On the procedure:
as §1

For `CC[C@@H](C(=O)[C@@H](C)[C@@H](O)[C@H](C)CCc1ccc(C)c(O)c1C(=O)O)[C@H]1O[C@](CC)([C@H]2CC[C@](O)(CC)[C@H](C)O2)C[C@@H]1C` [Lasalocide, lasalocide], in data set [1], the “potentiating effect (factor) on the cytotoxicity of immunotoxin anti-T-65” value (from here on “potentiating effect (factor)”) is about 36000 and the “spontaneous cytotoxicity of the ionophore for the cells employed” value (shortened to “spontaneous cytotoxicity”) is “not spontaneously cytotoxic”. Further, the “50% lethal dose (LD50)” value with mouse is recorded as 64 mg/kg.

Consider `CC[C@@]1([C@@H]2O[C@@H]([C@H]3O[C@@](O)(CO)[C@H](C)C[C@@H]3C)C[C@@H]2C)CC[C@H]([C@]2(C)CC[C@]3(C[C@H](O)[C@@H](C)[C@@H]([C@@H](C)[C@@H](OC)[C@H](C)C(=O)O)O3)O2)O1` [Monensin, monensin], for which, in data set [1], the “potentiating effect (factor)” value is recorded as about 55000 and the “spontaneous cytotoxicity” value is “not spontaneously cytotoxic”. Also, in data set [2], the “50% lethal dose, per mouse” value worked out at 340 micrograms per mouse. Further, the LD50 in data set [3] was determined as 17 mg/kg. Besides, the “50% lethal dose (LD50)” value with mouse is 16.8 mg/kg.

Consider `CO[C@@H]1C[C@@H](C[C@H]2CC[C@H](C)[C@H]([C@@H](C)C(=O)O)O2)O[C@]2(O[C@](C)([C@H]3CC[C@@](C)([C@@H]4O[C@@H]([C@H]5O[C@@](O)(CO)[C@H](C)C[C@@H]5C)C[C@@H]4C)O3)C[C@H]2C)[C@@H]1C` [Nigericin, nigericin], for which, in data set [1], the “potentiating effect (factor)” value is about 7000 and the “spontaneous cytotoxicity” value is “not spontaneously cytotoxic”. In the data set on mouse, the “50% lethal dose (LD50)” value is 65 mg/kg.
